Test results taken from US20250368633A1, “AZEPINE FUSED RING COMPOUND AS RIPK1 INHIBITOR AND USE THEREOF” (ARTIVILA BIOPHARMA, priority 2022, published 2025).

Columns and labels:
RIPK1 kinase [1] = molecular target: T1, RIPK1 kinase (Homo sapiens, UniProt Q13546); assay: In vitro RIPK1 kinase activity assay (ADP-Glo), inhibition by compounds at 1 μM; format: biochemical; conditions: compound 1 μM; ATP 10 μM; MBP substrate 100 μg/mL; read-out: RIPK1 kinase activity inhibition rate range
T1 construct: purchased Promega VA7593
T1 sequence (Q13546 1-671): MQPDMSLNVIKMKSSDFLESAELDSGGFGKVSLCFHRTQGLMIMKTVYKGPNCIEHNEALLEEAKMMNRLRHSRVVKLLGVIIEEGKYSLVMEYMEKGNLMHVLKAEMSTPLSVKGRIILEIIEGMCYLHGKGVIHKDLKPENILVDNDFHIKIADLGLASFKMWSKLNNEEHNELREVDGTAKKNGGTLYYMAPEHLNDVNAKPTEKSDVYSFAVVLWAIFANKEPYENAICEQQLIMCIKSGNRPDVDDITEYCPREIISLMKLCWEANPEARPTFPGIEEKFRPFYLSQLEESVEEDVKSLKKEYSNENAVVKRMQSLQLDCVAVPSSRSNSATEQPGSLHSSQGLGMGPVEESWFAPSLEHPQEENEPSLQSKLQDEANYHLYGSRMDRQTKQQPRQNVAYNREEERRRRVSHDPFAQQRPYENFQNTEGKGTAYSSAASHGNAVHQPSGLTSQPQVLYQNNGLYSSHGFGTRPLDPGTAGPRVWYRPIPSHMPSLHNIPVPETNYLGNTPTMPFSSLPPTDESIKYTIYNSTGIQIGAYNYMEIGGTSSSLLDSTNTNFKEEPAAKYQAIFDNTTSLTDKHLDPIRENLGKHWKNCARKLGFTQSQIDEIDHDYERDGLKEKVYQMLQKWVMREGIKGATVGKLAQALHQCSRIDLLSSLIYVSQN
In short: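 Read by ADP-Glo chemiluminescence as percent inhibition: RIPK1 kinase, 15-min room-temperature compound preincubation, then 1-h reaction with MBP (100 μg/mL final) and ATP (10 μM final). Enzyme level was set by titration.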

RIPK1 kinase [2] = molecular target: T1, RIPK1 kinase; assay: In vitro RIPK1 kinase activity IC50 assay (ADP-Glo); format: biochemical; conditions: ATP 10 μM; MBP substrate 100 μg/mL; 8 concentration points; read-out: IC50 range of compounds for RIPK1 kinase activity
In short: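 Human RIPK1 preincubated 15 min at room temperature with compound (8-point 1:5 dilution series, 1% DMSO in kinase buffer D). Reaction then ran 1 h with 10 μM ATP and 100 μg/mL MBP substrate; ADP measured by ADP-Glo luminescence, IC50 from four-parameter nonlinear fit.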

U937 cells = assay: Inhibition rate of compound (1 μM) on necroptosis of U937 cells (TSZ-induced, CellTiter-Glo); format: cell-based; conditions: TSZ (hTNF-α, SM-164, Z-VAD-FMK) 20 hours
In short: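 Percent inhibition comes from ATP luminescence (CellTiter-Glo), referenced to wells without TSZ and wells with TSZ alone. The compound was added to U937 cells 15 min ahead of a TNF-α/SM-164/Z-VAD-FMK mix, followed by 20 h culture at 37° C, 5% CO2.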

Row | inhibition at 1 µM (RIPK1 kinase [1]) [%] | IC50 (RIPK1 kinase [2]) [nM] | Compound | Inhibition rate range of compounds (1 μM) on U937 cell necroptosis (U937 cells)
1 | ≥ 75 | < 100 | C[C@@H](NC(=O)C(=O)N[C@H]1COc2ccc(C#CCN3CCNC(=O)C3)cc2N(C)C1=O)c1ccccc1 [Example 145, N^1-((S)-5-methyl-4-oxo-7-(3-(3-oxopiperazin-1-yl)prop-1-yn-1-yl)-2,3,4,5-tetrahydrobenzo[b][1, 4]oxazepin-3-yl)-N^2-((R)-1-phenylethyl)oxalamide] | A (A: ≥90%)
2 | 50 to 74 | < 100 | C[C@@H](NC(=O)C(=O)N[C@H]1COc2ccc(C#CCN(C)C)cc2N(C)C1=O)c1ccccc1 [Example 146, N^1-((S)-7-(3-(dimethylamino)prop-1-yn-1-yl)-5-methyl-4-oxo-2,3,4,5-tetrahydrobenzo[b][1,4]oxazepin-3-yl)-N^2-((R)-1-phenylethyl)oxalamide] | A (A: ≥90%)
3 | ≥ 75 | < 100 | C[C@@H](NC(=O)C(=O)N[C@H]1COc2ccc(C#CCN3CCC(O)CC3)cc2N(C)C1=O)c1ccccc1 [Example 138, N^1-((S)-7-(3-(4-hydroxypiperidin-1-yl)prop-1-yn-1-yl)-5-methyl-4-oxo-2,3,4,5-tetrahydrobenzo[b][1,4]oxazepin-3-yl)-N^2-((R)-1-phenylethyl)oxalamide] | A (A: ≥90%)
4 | ≥ 75 | < 100 | CN1C(=O)[C@@H](NC(=O)C(=O)NCCc2cccc(F)c2)COc2ccc(C#CC3(O)COC3)cc21 [Example 110, (S)—N^1-(3-fluorophenethyl)-N^2-(7-((3-hydroxyoxetan-3-yl)ethynyl)-5-methyl-4-oxo-2,3,4,5-tetrahydrobenzo[b][1,4]oxazepin-3-yl)oxalamide] | A (A: ≥90%)
5 | 50 to 74 | < 100 | C[C@H](CNC(=O)C(=O)N[C@H]1COc2ccc(C#CCCO)cc2N(C)C1=O)c1ccccc1 [Example 156, N^1-((S)-7-(4-hydroxybut-1-yn-1-yl)-5-methyl-4-oxo-2,3,4,5-tetrahydrobenzo[b][1,4]oxazepin-3-yl)-N^2-((S)-2-phenylpropyl)oxalamide] | A (A: ≥90%)
6 | ≥ 75 | < 100 | C[C@@H](NC(=O)C(=O)N[C@H]1COc2ccc(C#CC3CN(CC#N)C3)cc2N(C)C1=O)c1ccccc1 [Example 148, N^1-((S)-7-((1-(cyanomethyl)azetidin-3-yl)ethynyl)-5-methyl-4-oxo-2,3,4,5-tetrahydrobenzo[b][1, 4]oxazepin-3-yl)-N^2-((R)-1-phenylethyl)oxalamide] | A (A: ≥90%)
7 | 50 to 74 | < 100 | CN1C(=O)[C@@H](NC(=O)C(=O)NCCc2cccc(F)c2)COc2ccc(C#Cc3cccnc3)cc21 [Example 117, (S)—N^1-(3-fluorophenethyl)-N^2-(5-methyl-4-oxo-7-(pyridin-3-ylethynyl)-2,3,4,5-tetrahydrobenzo[b][1,4]oxazepin-3-yl)oxalamide] | A (A: ≥90%)
8 | ≥ 75 | < 100 | CN1C(=O)[C@@H](NC(=O)C(=O)NCCc2cccc(F)c2)COc2ccc(C#CCN3CC[C@@H](O)C3)cc21 [Example 114, N^1-(3-fluorophenethyl)-N^2-((S)-7-(3-((R)-3-hydroxypyrrolidin-1-yl)prop-1-yn-1-yl)-5-methyl-4-oxo-2,3,4,5-tetrahydrobenzo[b][1,4]oxazepin-3-yl)oxalamide] | A (A: ≥90%)

More lines, now with the values behind:

Row | Compound | inhibition at 1 µM (RIPK1 kinase [1]) [%] | IC50 (RIPK1 kinase [2]) [nM] | Inhibition rate range of compounds (1 μM) on U937 cell necroptosis (U937 cells)
9 | CC(NC(=O)C(=O)N[C@H]1COc2ccc(C#CCCO)cc2N(C)C1=O)c1ccccc1 (mixture of isomers) [Example 41, N^1-((S)-7-(4-hydroxybut-1-yn-1-yl)-5-methyl-4-oxo-2,3,4,5-tetrahydrobenzo[b][1,4]oxazepin-3-yl)-N^2-(1-phenylethyl)oxalamide] | ≥ 75 | < 100 | A (A: ≥90%)
10 | CN1C(=O)[C@@H](NC(=O)C(=O)NCCc2ccccc2)COc2ccc(C#CCNC(=O)OC(C)(C)C)cc21 [Example 86, tert-butyl (S)-(3-(5-methyl-4-oxo-3-(2-oxo-2-(phenethylamino)acetamido)-2,3,4,5-tetrahydrobenzo[b][1,4]oxazepin-7-yl)prop-2-yn-1-yl)carbamate] | 50 to 74 | < 100 | A (A: ≥90%)
11 | CN1C(=O)[C@@H](NC(=O)C(=O)NCCc2ccccc2)COc2ccc(C#Cc3cccnc3)cc21 [Example 13, (S)—N^1-(5-methyl-4-oxo-7-(pyridin-3-ylethynyl)-2,3,4,5-tetrahydrobenzo[b][1,4]oxazepin-3-yl)-N^2-phenethyloxalamide] | ≥ 75 | < 100 | A (A: ≥90%)
12 | C/C(C#Cc1ccc2c(c1)N(C)C(=O)[C@@H](NC(=O)C(=O)NCCc1ccccc1)CO2)=C/CO [Example 45, (S,Z)-N^1-(7-(5-hydroxy-3-methylpent-3-en-1-yn-1-yl)-5-methyl-4-oxo-2,3,4,5-tetrahydrobenzo[b][1,4]oxazepin-3-yl)-N^2-phenethyloxalamide] | ≥ 75 | < 100 | A (A: ≥90%)
13 | CN1C(=O)[C@@H](NC(=O)C(=O)NCc2ccccc2)COc2ccc(C#CCN3CCOCC3)cc21 [Example 106, (S)—N^1-benzyl-N^2-(5-methyl-7-(3-morpholinoprop-1-yn-1-yl)-4-oxo-2,3,4,5-tetrahydrobenzo[b][1, 4]oxazepin-3-yl)oxalamide] | ≥ 75 | < 100 | B (B: 50-89%)
14 | CC#Cc1ccc2c(c1)N(C)C(=O)[C@@H](NC(=O)C(=O)NCCc1ccccc1)CO2 [Example 19, (S)—N^1-(5-methyl-4-oxo-7-(prop-1-yn-1-yl)-2,3,4,5-tetrahydrobenzo[b][1,4]oxazepin-3-yl)-N^2-phenethyloxalamide] | ≥ 75 | < 100 | A (A: ≥90%)
15 | CN1C(=O)C(NC(=O)C(=O)NCCc2ccccc2)CCc2ccc(C#CCCO)cc21 (stereo not drawn) [Example 65, N^1-(8-(4-hydroxybut-1-yn-1-yl)-1-methyl-2-oxo-2,3,4,5-tetrahydro-1H-benzo[b]azepin-3-yl)-N^2-phenethyloxalamide] | ≥ 75 | < 100 | A (A: ≥90%)
16 | CN1C(=O)[C@@H](NC(=O)C(=O)NCCc2cc(F)cc(F)c2)COc2ccc(C#CCCO)cc21 [Example 36, (S)—N^1-(3,5-difluorophenethyl)-N^2-(7-(4-hydroxybut-1-yn-1-yl)-5-methyl-4-oxo-2,3,4,5-tetrahydrobenzo[b][1,4]oxazepin-3-yl)oxalamide] | ≥ 75 | < 100 | A (A: ≥90%)
17 | CN1C(=O)C(NC(=O)C(=O)NCCc2ccccc2)CCc2ccc(C#CC3CC3)cc21 (stereo not drawn) [Example 62, N^1-(8-(cyclopropylethynyl)-1-methyl-2-oxo-2,3,4,5-tetrahydro-1H-benzo[b]azepin-3-yl)-N^2-phenethyloxalamide] | ≥ 75 | < 100 | A (A: ≥90%)
18 | C=CC(=O)NCC#Cc1ccc2c(c1)N(C)C(=O)[C@@H](NC(=O)C(=O)NCCc1ccccc1)CO2 [Example 89, (S)—N^1-(7-(3-acrylamidoprop-1-yn-1-yl)-5-methyl-4-oxo-2,3,4,5-tetrahydrobenzo[b][1,4]oxazepin-3-yl)-N^2-phenethyloxalamide] | 50 to 74 | < 100 | A (A: ≥90%)
19 | CN1C(=O)[C@@H](NC(=O)C(=O)NCCc2ccccc2)COc2ccc(C#C[Si](C)(C)C)cc21 [Example 18, (S)—N^1-(5-methyl-4-oxo-7-((trimethylsilyl)ethynyl)-2,3,4,5-tetrahydrobenzo[b][1,4]oxazepin-3-yl)-N^2-phenethyloxalamide] | ≥ 75 | < 100 | A (A: ≥90%)
